The subject of the assay is SCC4, HSC3, Cal27 OSCC cell lines. As to the kind of experiment: MTT assay, human OSCC cell lines. It is filed as cell-based. The conditions noted are these: 8 h and 24 h treatments, read-out: IC50 (cell growth).

Description: SCC4 and Cal27 oral cancer cells are obtained from ATCC and maintained in DMEM supplemented with 10% fetal bovine serum and 1% penicillin/streptomycin at 37° C. with 5% CO2. For the SCC4 cells, hydrocortisone was provided at 400 ng/ml in the completed media. […] Doses to be tested will bracket the IC50s for each cell line. Control cells will receive DMSO. […] Subsequently, 10 μl of 12 mM MTT (Life Technologies; Carlsbad, Calif.) solution was added to each well, incubated for 4 hr at 37° C., and neutralized with DMSO. Absorbance was measured at 540 nm and percent viability was calculated.

With `Cc1ccc(-c2cc(C(F)(F)F)nn2-c2ccc(S(N)(=O)=O)cc2)cc1` [Celecoxib], the IC50 turned out to be 75 µM.

The term IC50 denotes the concentration at which inhibition is half-maximal.

For the origin of these results see patent publication US20210315960A1, “COMPOSITIONS OF AZADIRACHTA INDICA AND METHODS OF TREATING CANCER” (Board of Regents, The University of Texas System, priority 2018, published 2021).
